Test results published in patent US5434246A, “Parathyroid hormone derivatives” (Takeda Chemical Industries, Ltd., priority 1992, dated 1995).
Ends that are not written are not given here.

Target: T1, PTH receptor (Mus musculus, UniProt P41593)
T1 construct: a mouse cranial bone-derived osteoblast-like cell strain, MC3T3-EI cells; endogenous in cells; host or cells: MC3T3-E1 mouse osteoblast-like cells
T1 sequence (P41593 27-591): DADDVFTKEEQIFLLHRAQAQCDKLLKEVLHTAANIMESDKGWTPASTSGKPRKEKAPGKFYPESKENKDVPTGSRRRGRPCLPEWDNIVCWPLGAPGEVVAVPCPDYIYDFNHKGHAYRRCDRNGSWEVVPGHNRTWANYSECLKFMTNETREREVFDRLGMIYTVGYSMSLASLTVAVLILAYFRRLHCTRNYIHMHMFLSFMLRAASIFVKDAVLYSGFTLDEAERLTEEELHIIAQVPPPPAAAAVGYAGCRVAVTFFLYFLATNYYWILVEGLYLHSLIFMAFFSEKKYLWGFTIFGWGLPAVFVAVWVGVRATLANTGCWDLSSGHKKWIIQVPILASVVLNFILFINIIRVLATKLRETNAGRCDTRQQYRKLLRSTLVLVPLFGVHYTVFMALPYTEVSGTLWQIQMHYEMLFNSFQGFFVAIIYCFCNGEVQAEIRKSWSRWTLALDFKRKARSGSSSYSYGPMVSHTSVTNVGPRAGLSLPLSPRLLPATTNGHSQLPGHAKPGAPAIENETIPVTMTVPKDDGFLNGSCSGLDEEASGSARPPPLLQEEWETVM
Assay: cAMP production in MC3T3-EI osteoblast-like cells (biological activity of PTH(1-34) derivatives)
Type: cell-based
Conditions: 0.01-100 nM derivative, room temperature 30 minutes, hPTH(1-34) standard = 1.00
Description: The biological activity of the PTH (1-34) derivatives was evaluated by a modified version of the method reported by Shigeno et al. in The Journal of Biological Chemistry 263, 18369-18377 (1988). A culture solution (Hank's solution, containing 20 mM N-2-hydroxyethylpiperazine-N'-2-ethanesulfonic acid-(HEPES), 0.1% bovine serum albumin and 0.5 mM isobutylmethyl-xanthine) containing a 0.01, 0.1, 1, 10 or 100 nM derivative was added in an amount of 100 μl to a mouse cranial bone-derived osteoblast-like cell strain, MC3T3-EI cells, cultivated on a 96-well multiplate (Nunclon, Nunc), followed by reaction at room temperature for 30 minutes. After addition of 100 μl of 0.2N hydrochloric acid, the mixture was immersed in boiling water for 2.5 minutes, and cyclic adenosine monophosphate (cAMP) produced by a PTH receptor was extracted from the cells. The total cAMP in the culture solution and the cells was assayed using a commercial radioimmunoassay kit (cyclic AMP [^125 I] kit "Du Pont-Daiichi", Daiichi Kagaku Yakuhin).

| Molecule | Biological Activity, Represented by Relative Activity to hPTH(1-34) |
| --- | --- |
| CC[C@H](C)[C@H](NC(=O)[C@H](CCC(=O)O)NC(=O)[C@H](CO)NC(=O)[C@@H](NC(=O)[C@@H](N)CO)C(C)C)C(=O)N[C@@H](CCC(N)=O)C(=O)N[C@@H](CC(C)C)C(=O)N[C@@H](CCSC)C(=O)N[C@@H](Cc1c[nH]cn1)C(=O)N[C@@H](CC(N)=O)C(=O)N[C@@H](CC(C)C)C(=O)NCC(=O)N[C@@H](CCCCN)C(=O)N[C@@H](Cc1c[nH]cn1)C(=O)N[C@@H](CC(C)C)C(=O)N[C@@H](CCC(=O)O)C(=O)N[C@@H](CO)C(=O)N[C@@H](CCSC)C(=O)N[C@@H](CCC(=O)O)C(=O)N[C@@H](CCCNC(=N)N)C(=O)N[C@H](C(=O)N[C@@H](CCC(=O)O)C(=O)N[C@@H](Cc1c[nH]c2ccccc12)C(=O)N[C@@H](CC(C)C)C(=O)N[C@@H](CCCNC(=N)N)C(=O)N[C@@H](CCCCN)C(=O)N[C@@H](CCCCN)C(=O)N[C@@H](CC(C)C)C(=O)N[C@@H](CCC(N)=O)C(=O)N[C@@H](CC(=O)O)C(=O)N[C@H](C(=O)N[C@@H](Cc1c[nH]cn1)C(=O)N[C@@H](CC(N)=O)C(=O)N[C@@H](Cc1ccccc1)C(=O)O)C(C)C)C(C)C [[Glu^16]hPTH(1-34)] | 1.55 |
| SVSEIQLMHNLGKKKKKMERVEWLRKKLQDVHNF [[Lys^14,15,16,17]hPTH (1-34), [Lys^14,15,16,17]hPTH(1-34)] | 6.39 |
| SVSEIQLMHNLGKHLNSMERVEWLQQQLQDVHNF [[Gln^25,26,27]hPTH (1-34), [Gln^25,26,27]hPTH(1-34)] | 0.41 |
| CC[C@H](C)[C@H](NC(=O)[C@H](CCC(=O)O)NC(=O)[C@H](CO)NC(=O)[C@@H](NC(=O)[C@@H](N)CO)C(C)C)C(=O)N[C@@H](CCC(N)=O)C(=O)N[C@@H](CC(C)C)C(=O)N[C@@H](CCSC)C(=O)N[C@@H](Cc1c[nH]cn1)C(=O)N[C@@H](CC(N)=O)C(=O)N[C@@H](CC(C)C)C(=O)NCC(=O)N[C@@H](CCCCN)C(=O)N[C@@H](Cc1c[nH]cn1)C(=O)N[C@@H](CC(C)C)C(=O)N[C@@H](CC(N)=O)C(=O)N[C@@H](CO)C(=O)N[C@@H](CCSC)C(=O)N[C@@H](CCC(=O)O)C(=O)N[C@@H](CCCNC(=N)N)C(=O)N[C@H](C(=O)N[C@@H](CCC(=O)O)C(=O)N[C@@H](Cc1c[nH]c2ccccc12)C(=O)N[C@@H](CC(C)C)C(=O)N[C@@H](CCCNC(=N)N)C(=O)N[C@@H](CCCCN)C(=O)N[C@H](C(=O)N[C@@H](CC(C)C)C(=O)N[C@@H](CCC(N)=O)C(=O)N[C@@H](CC(=O)O)C(=O)N[C@H](C(=O)N[C@@H](Cc1c[nH]cn1)C(=O)N[C@@H](CC(N)=O)C(=O)N[C@@H](Cc1ccccc1)C(=O)O)C(C)C)[C@@H](C)O)C(C)C [[Thr^27]hPTH(1-34)] | 0.96 |
| SVSEIQLMHNLGKHKKKMERVEWLRKKLQDVHNF [[Lys^15,16,17]hPTH (1-34), [Lys^15,16,17]hPTH(1-34)] | 7.62 |
| CC[C@H](C)[C@H](NC(=O)[C@H](CCC(=O)O)NC(=O)[C@H](CO)NC(=O)[C@@H](NC(=O)[C@@H](N)CO)C(C)C)C(=O)N[C@@H](CCC(N)=O)C(=O)N[C@@H](CC(C)C)C(=O)N[C@@H](CCSC)C(=O)N[C@@H](Cc1c[nH]cn1)C(=O)N[C@@H](CC(N)=O)C(=O)N[C@@H](CC(C)C)C(=O)NCC(=O)N[C@@H](CCCCN)C(=O)N[C@@H](Cc1c[nH]cn1)C(=O)N[C@@H](CC(C)C)C(=O)N[C@H](CCCCN)C(=O)N[C@@H](CO)C(=O)N[C@@H](CCSC)C(=O)N[C@@H](CCC(=O)O)C(=O)N[C@@H](CCCNC(=N)N)C(=O)N[C@H](C(=O)N[C@@H](CCC(=O)O)C(=O)N[C@@H](Cc1c[nH]c2ccccc12)C(=O)N[C@@H](CC(C)C)C(=O)N[C@@H](CCCNC(=N)N)C(=O)N[C@@H](CCCCN)C(=O)N[C@@H](CCCCN)C(=O)N[C@@H](CC(C)C)C(=O)N[C@@H](CCC(N)=O)C(=O)N[C@@H](CC(=O)O)C(=O)N[C@H](C(=O)N[C@@H](Cc1c[nH]cn1)C(=O)N[C@@H](CC(N)=O)C(=O)N[C@@H](Cc1ccccc1)C(=O)O)C(C)C)C(C)C [[D-Lys^16]hPTH(1-34)] | 0.86 |
| SVSEIQLMHNLGKHKKSMERVEWLRKHLQDVHNF [[Lys^15,16,His^27]hPTH(1-34)] | 1.49 |
| CC[C@H](C)[C@H](NC(=O)[C@H](CCC(=O)O)NC(=O)[C@H](CO)NC(=O)[C@@H](NC(=O)[C@@H](N)CO)C(C)C)C(=O)N[C@@H](CCC(N)=O)C(=O)N[C@@H](CC(C)C)C(=O)N[C@@H](CCSC)C(=O)N[C@@H](Cc1c[nH]cn1)C(=O)N[C@@H](CC(N)=O)C(=O)N[C@@H](CC(C)C)C(=O)NCC(=O)N[C@@H](CCCCN)C(=O)N[C@@H](Cc1c[nH]cn1)C(=O)N[C@@H](CC(C)C)C(=O)N[C@H](C(=O)N[C@@H](CO)C(=O)N[C@@H](CCSC)C(=O)N[C@@H](CCC(=O)O)C(=O)N[C@@H](CCCNC(=N)N)C(=O)N[C@H](C(=O)N[C@@H](CCC(=O)O)C(=O)N[C@@H](Cc1c[nH]c2ccccc12)C(=O)N[C@@H](CC(C)C)C(=O)N[C@@H](CCCNC(=N)N)C(=O)N[C@@H](CCCCN)C(=O)N[C@@H](CCCCN)C(=O)N[C@@H](CC(C)C)C(=O)N[C@@H](CCC(N)=O)C(=O)N[C@@H](CC(=O)O)C(=O)N[C@H](C(=O)N[C@@H](Cc1c[nH]cn1)C(=O)N[C@@H](CC(N)=O)C(=O)N[C@@H](Cc1ccccc1)C(=O)O)C(C)C)C(C)C)[C@@H](C)O [[Thr^16]hPTH(1-34)] | 1.74 |
| SVSEIQLMHNLGKHLKKMERVEWLRKKLQDVHNF [[Lys^16,17]hPTH(1-34)] | 8.85 |
| CC[C@H](C)[C@H](NC(=O)[C@H](CCC(=O)O)NC(=O)[C@H](CO)NC(=O)[C@@H](NC(=O)[C@@H](N)CO)C(C)C)C(=O)N[C@@H](CCC(N)=O)C(=O)N[C@@H](CC(C)C)C(=O)N[C@@H](CCSC)C(=O)N[C@@H](Cc1c[nH]cn1)C(=O)N[C@@H](CC(N)=O)C(=O)N[C@@H](CC(C)C)C(=O)NCC(=O)N[C@@H](CCCCN)C(=O)N[C@@H](Cc1c[nH]cn1)C(=O)N[C@@H](CC(C)C)C(=O)N[C@@H](CC(N)=O)C(=O)N[C@@H](CO)C(=O)N[C@@H](CCSC)C(=O)N[C@@H](CCC(=O)O)C(=O)N[C@@H](CCCNC(=N)N)C(=O)N[C@H](C(=O)N[C@@H](CCC(=O)O)C(=O)N[C@@H](Cc1c[nH]c2ccccc12)C(=O)N[C@@H](CC(C)C)C(=O)N[C@@H](CCCNC(=N)N)C(=O)N[C@@H](CCCCN)C(=O)N[C@@H](CCCCN)C(=O)N[C@@H](CC(C)C)C(=O)N[C@@H](CCC(N)=O)C(=O)N[C@@H](CC(=O)O)C(=O)N[C@H](C(=O)N[C@@H](Cc1c[nH]cn1)C(=O)N[C@@H](CC(N)=O)C(=O)N[C@@H](Cc1ccccc1)C(=O)O)C(C)C)C(C)C [hPTH(1-34), reference compound] | 1.00 |
| SVSEIQLMHNLGKHLKDMERVEWLRKKLQDVHNF [[Lys^16,Asp^17]hPTH(I-34), [Lys^16 Asp^17]hPTH(1-3)] | 1.24 |
